Source: patent publication US9920136B2, “Posaconazole immunoassays” (ARK Diagnostics, Inc., priority 2013, dated 2018)

Assays:
[1] = system: Ab15421 (rabbit polyclonal antibody to posaconazole); assay: Specificity of the immunoassay: cross-reactivity to antifungal triazoles; type: binding; details: Ab15421 with POS-IV G6PDH; for Cross-reaction of Ab15421 with other azole antifungals (in words): human serum samples, 10 μg/mL; for Cross-reactivity (%): triazole 20 μg/ml added to Posaconazole 10 μg/ml vs Posaconazole 10 μg/ml control, human serum
Source text: Antibodies obtained using any of the disclosed techniques are screened or purified not only for their ability to react with posaconazole, but for a low cross-reactivity with potential interfering substances. “Cross-reactivity” may be determined in a quantitative immunoassay by establishing a standard curve using known dilutions of the target analyte, posaconazole. The standard curve is then used to calculate the apparent concentration of the interfering substance present in various known amounts in samples assayed under similar condition. The cross-reactivity can be calculated as the apparent concentration divided by the actual concentration multiplied by 100. A certain immunoassay for determining cross-reactivity is a homogeneous enzyme immunoassay using a wild type G6PDH as described in U.S. Pat. No. 3,817,837 or mutant G6PDH engineered to contain a cysteine per subunit as described in U.S. Pat. Nos. 6,033,890, 6,090,567 and 6,455,288. Furthermore, the cross-reactivity can be determined in the same type of immunoassay in which the antibody will ultimately be used.
To human serum negative for antifungal azoles was added posaconazole dissolved in methanol to achieve a concentration of 10 μg/mL of posaconazole. […]
The assay was calibrated as described in Example 8 using Enzyme Conjugate Reagent NB051:154 containing conjugate POS-IV G6PDH and Antibody Reagent NB051:154 containing Ab15421. The testing was performed on the HITACHI 917. The samples were quantified from the calibration curve generated.

[2] = system: Ab15421 (rabbit polyclonal antibody to posaconazole); assay: Homogeneous enzyme immunoassay calibration curve (POS-IV G6PDH conjugate and Ab15421) in pooled human serum; type: binding; details: HITACHI 917, 340 nm
Procedure: Ab15421 was used to measure enzyme activity, generate a calibration curve, and evaluate assay precision, accuracy and specificity. Ab15421 was added into the antibody diluent to prepare the antibody reagent. The antibody reagent included Ab15421 as prepared above, buffer, stabilizers, preservatives, and the substrates for the enzyme conjugate nicotinamide adenine dinucleotide (NAD^+) and glucose-6-phosphate. Enzyme conjugate POS-IV G6PDH was added into the conjugate reagent to prepare the enzyme conjugate reagent. The enzyme conjugate reagent included the conjugate, buffer, stabilizers and preservatives. Enzyme conjugate POS-IV G6PDH was used with Ab15421 in examples below.
Ab15421 was added into the antibody diluent to prepare the antibody reagent. The antibody reagent included Ab15421 as prepared above, buffer, stabilizers, preservatives, and the substrates for the enzyme conjugate NAD^+ and glucose 6 phosphate. Enzyme conjugate POS-IV G6PDH or a label protein including alkaline phosphatase, β-galactosidase and horse radish peroxidase was added into the conjugate reagent to prepare the enzyme conjugate reagent. The enzyme conjugate reagent included the conjugate, buffer, stabilizers and preservatives.
The posaconazole antibodies and enzyme conjugates were used in a homogeneous assay format to detect posaconazole samples. Posaconazole containing sample was incubated with antibody reagent followed by the addition of the enzyme conjugate reagent. The enzyme conjugate activity decreased upon binding to Ab15421. The enzyme conjugate, which was not bound to Ab15421, catalyzed the oxidation of glucose 6-phosphate (G6P). The oxidation of G6P was coupled with the reduction of NAD^+ to NADH, which was measured at 340 nm. The change in the absorbance at 340 nm was measured spectrophotometrically. The posaconazole concentration in a sample was measured in terms of G6PDH activity. The increase in the rate at 340 nm was due to the formation of NADH and was proportional to the enzyme conjugate activity. An assay curve was generated using posaconazole added into serum negative for posaconazole. The assay rate increased with increasing the concentration of free drug in the sample.
Posaconazole was dissolved in methanol to give a stock solution of 1000 μg/mL. Pooled human serum was aliquoted in 10 mL portions. Posaconazole stock solution was added to the aliquots of human serum in preparing a series of known concentrations of posaconazole calibrators ranging from 0 to 16 μg/mL. The assay was performed using Enzyme Conjugate Reagent NB051:154 containing conjugate POS-IV G6PDH and Antibody Reagent NB051:154 containing Ab15421. Calibration curves were generated on the HITACHI 917 automated clinical chemistry analyzer, as described in Example 7 by measuring each level in duplicate.

[3] = cited from earlier work

| Reaction Rate (mA/min) Average of Duplicates ([2]; Posaconazole Conc. 1.0 μg/mL in pooled human serum) | Reaction Rate (mA/min) Average of Duplicates ([2]; Posaconazole Conc. 2.0 μg/mL in pooled human serum) | Reaction Rate (mA/min) Average of Duplicates ([2]; Posaconazole Conc. 4.0 μg/mL in pooled human serum) | Reaction Rate (mA/min) Average of Duplicates ([2]; Posaconazole Conc. 8.0 μg/mL in pooled human serum) | Reaction Rate (mA/min) Average of Duplicates ([2]; Posaconazole Conc. 16.0 μg/mL in pooled human serum) | SMILES | Cross-reaction of Ab15421 with other azole antifungals (in words) [1] | Cross-reactivity (%) [1] | Increase of bioavailability on coadministration with food ([3]; coadministration with food) | Bioavailability (in words) ([3]; oral, saturable absorption) |
| --- | --- | --- | --- | --- | --- | --- | --- | --- | --- |
| – | – | – | – | – | OC(Cn1cncn1)(Cn1cncn1)c1ccc(F)cc1F [Fluconazole] | did not crossreact | <0.01% | – | – |
| 165.7 mA/min | 235.5 mA/min | 304.7 mA/min | 371.7 mA/min | 409.4 mA/min | CC[C@@H]([C@H](C)O)n1ncn(-c2ccc(N3CCN(c4ccc(OC[C@@H]5CO[C@@](Cn6cncn6)(c6ccc(F)cc6F)C5)cc4)CC3)cc2)c1=O [Posaconazole, 4-[4-[4-[4-[[(3R,5R)-5-(2,4-difluorophenyl)tetrahydro-5-(1H 1,2,4-triazol-1-ylmethyl)-3-furanyl]methoxy]phenyl]-1-piperazinyl]phenyl]-2-[(1S,2S)-1-ethyl-2-hydroxypropyl]-2,4-dihydro-3H-1,2,4-triazol-3-one] | – | – | up to 4 fold | low and highly variable bioavailability |
| – | – | – | – | – | C[C@@H](c1ncncc1F)[C@](O)(Cn1cncn1)c1ccc(F)cc1F [Voriconazole] | did not crossreact | <0.01% | – | – |
